Measurements as given in patent US9085520B2, “Composition for treating diabetes and metabolic diseases and a preparation method thereof” (KAOHSIUNG MEDICAL UNIVERSITY, priority 2011, dated 2015).
Where “and” joins values, the source holds several entries; their conditions need not be identical. Identical values can stand only once. Entries after “also recorded” stand apart in the source; their conditions may differ.

How the values were obtained:
3T3-L1 adipocytes [1] = assay: glucose consumption (remaining glucose) in culture medium of 3T3-L1 adipocytes; format: cell-based; settings: 30 μg/ml; for remaining glucose concentration in culture medium after 24 hours: culture medium of 3T3-L1 adipocytes after 24 hours, means ± SD, N = 3, control 310 ± 4.0; for glucose absorption activity of adipocytes 3T3-L1 (anti-hyperglycemic ability): FIG. 1, medium glucose 300 mg/dl, remaining glucose after 24 hours
Experimental: After precursor adipocytes 3T3-L1 were induced as the matured adipocytes, culture medium with glucose (concentration of 300 mg/dl) and drugs were added, and the concentration of the remaining glucose in the culture medium were measured after 24 hours.
Adipose tissues are major sites for postprandial glucose uptake. Therefore, in vitro anti-diabetic screening model based on measuring glucose consumption after 24 hours in culture medium of 3T3-L1 adipocytes was developed. […] Accordingly, 60 chalcone derivatives with and without substitutions on A-ring were examined in our developed model. […] Structure-activity relationship (SAR) analyses data are also determined.

3T3-L1 adipocytes [2] = assay: adipocyte death / toxicity to adipocytes; settings: 30 μg/ml, matured 3T3-L1 adipocytes, 24 hours

SMILES | remaining glucose concentration in culture medium after 24 hours (3T3-L1 adipocytes [1]) | also measured
COc1ccc(/C=C/C(=O)c2ccccc2O)cc1 [Compound 1, (E)-1-(2-hydroxyphenyl)-3-(4-methoxyphenyl)prop-2-en-1-one] | 283 ± 21.4 mg/dL | adipocyte death / toxicity to adipocytes (3T3-L1 adipocytes [2]): non-toxic
O=C(/C=C/c1ccccc1)c1ccc(O)cc1O [Compound 2, (E)-1-(2,4-dihydroxyphenyl)-3-phenylprop-2-en-1-one] | 273 ± 2.9 mg/dL | glucose absorption activity of adipocytes 3T3-L1 (anti-hyperglycemic ability) (3T3-L1 adipocytes [1]): not significantly better than that in compound 9; adipocyte death / toxicity to adipocytes (3T3-L1 adipocytes [2]): lead to adipocyte death; also recorded: toxic
O=C(/C=C/c1ccc(OCc2ccccc2)cc1)c1ccc(O)cc1O [Compound 3, (E)-3-(4-(benzyloxy)phenyl)-1-(2,4-dihydroxyphenyl)prop-2-en-1-one] | 249 ± 12.2 mg/dL | glucose absorption activity of adipocytes 3T3-L1 (anti-hyperglycemic ability) (3T3-L1 adipocytes [1]): not significantly better than that in compound 9; adipocyte death / toxicity to adipocytes (3T3-L1 adipocytes [2]): lead to adipocyte death; also recorded: toxic
COc1cccc(/C=C/C(=O)c2ccccc2O)c1 [Compound 4, (E)-1-(2-hydroxyphenyl)-3-(3-methoxyphenyl)prop-2-en-1-one] | 264 ± 7.8 mg/dL | adipocyte death / toxicity to adipocytes (3T3-L1 adipocytes [2]): non-toxic
COc1ccc(/C=C/C(=O)c2ccc(O)cc2O)cc1 [Compound 5, (E)-1-(2,4-dihydroxyphenyl)-3-(4-methoxyphenyl)-prop-2-en-1-one] | 248 ± 0.4 mg/dL | glucose absorption activity of adipocytes 3T3-L1 (anti-hyperglycemic ability) (3T3-L1 adipocytes [1]): not significantly better than that in compound 9; adipocyte death / toxicity to adipocytes (3T3-L1 adipocytes [2]): lead to adipocyte death; also recorded: toxic
COc1cccc(/C=C/C(=O)c2ccc(O)cc2O)c1 [Compound 6, (E)-1-(2,4-dihydroxyphenyl)-3-(3-methoxyphenyl)-prop-2-en-1-one] | 274 ± 12.1 mg/dL | glucose absorption activity of adipocytes 3T3-L1 (anti-hyperglycemic ability) (3T3-L1 adipocytes [1]): not significantly better than that in compound 9; adipocyte death / toxicity to adipocytes (3T3-L1 adipocytes [2]): lead to adipocyte death; also recorded: toxic
O=C(/C=C/c1ccccc1)c1ccccc1 [Compound 9, (E)-chalcone] | 253 ± 9.9 mg/dL | glucose absorption activity of adipocytes 3T3-L1 (anti-hyperglycemic ability) (3T3-L1 adipocytes [1]): relatively similar; adipocyte death / toxicity to adipocytes (3T3-L1 adipocytes [2]): non-toxic
O=C(/C=C/c1ccc(O)cc1)c1ccccc1 [Compound 29, (E)-3-(4-hydroxyphenyl)-1-phenylprop-2-en-1-one] | 263 ± 5.6 mg/dL | –
O=C(/C=C/c1cccc(OCc2ccccc2)c1)c1ccccc1 [Compound 30, (E)-3-(3-(benzyloxy)phenyl)-1-phenylprop-2-en-1-one] | 285 ± 8.2 mg/dL | –
O=C(/C=C/c1ccc(OCc2ccccc2)cc1)c1ccccc1 [Compound 31, (E)-3-(4-(benzyloxy)phenyl)-1-phenylprop-2-en-1-one] | 274 ± 13.0 mg/dL | –
O=C(/C=C/c1ccc2c(c1)OCO2)c1ccccc1 [Compound 32, (E)-3-(benzo[d][1,3]dioxol-5-yl)-1-phenylprop-2-en-1-one] | 252 ± 18.1 mg/dL | –
O=C(/C=C/c1ccc2c(c1)OCO2)c1ccccc1O [Compound 33, (E)-3-(benzo[d][1,3]dioxol-5-yl)-1-(2-hydroxyphenyl)prop-2-en-1-one] | 279 ± 7.6 mg/dL | –
O=C(/C=C/c1cccc(OCc2ccccc2)c1)c1ccc(O)cc1O [Compound 34, (E)-3-(3-(benzyloxy)phenyl)-1-(2,4-dihydroxyphenyl)prop-2-en-1-one] | 283 ± 2.6 mg/dL | –
COc1cccc(/C=C/C(=O)c2cc(F)ccc2O)c1 [Compound 35, (E)-1-(5-fluoro-2-hydroxyphenyl)-3-(3-methoxyphenyl)prop-2-en-1-one] | 297 ± 9.3 mg/dL | –
COc1ccc(/C=C/C(=O)c2cc(Cl)ccc2O)cc1 [Compound 37, (E)-1-(5-chloro-2-hydroxyphenyl)-3-(4-methoxyphenyl)prop-2-en-1-one] | 282 ± 16.4 mg/dL | –
COc1cccc(/C=C/C(=O)c2cc(Cl)ccc2O)c1 [Compound 38, (E)-1-(5-chloro-2-hydroxyphenyl)-3-(3-methoxyphenyl)prop-2-en-1-one] | 266 ± 23.3 mg/dL | –
COc1cccc(/C=C/C(=O)c2ccccc2F)c1 [Compound 39, (E)-1-(2-fluorophenyl)-3-(3-methoxyphenyl)prop-2-en-1-one] | 285 ± 4.4 mg/dL | –
COc1ccc(/C=C/C(=O)c2cccc(F)c2)cc1 [Compound 40, (E)-1-(3-fluorophenyl)-3-(4-methoxyphenyl)prop-2-en-1-one] | 298 ± 15.5 mg/dL | –
COc1cccc(/C=C/C(=O)c2cccc(F)c2)c1 [Compound 41, (E)-1-(3-fluorophenyl)-3-(3-methoxyphenyl)prop-2-en-1-one] | 282 ± 10.1 mg/dL | –

SMILES | remaining glucose concentration in culture medium after 24 hours (3T3-L1 adipocytes [1]) | also measured
COc1cccc(/C=C/C(=O)c2ccc(F)cc2)c1 [Compound 42, (E)-1-(4-fluorophenyl)-3-(3-methoxyphenyl)prop-2-en-1-one] | 285 ± 1.6 mg/dL | –
O=C(/C=C/c1ccccc1)c1cccc(Cl)c1 [Compound 43, (E)-1-(3-chlorophenyl)-3-phenylprop-2-en-1-one] | 291 ± 9.2 mg/dL | –
COc1cccc(/C=C/C(=O)c2cccc(Cl)c2)c1 [Compound 44, (E)-1-(3-chlorophenyl)-3-(3-methoxyphenyl)prop-2-en-1-one] | 287 ± 13.4 mg/dL | –
COc1ccc(/C=C/C(=O)c2cccc(Cl)c2)cc1 [Compound 45, (E)-1-(3-chlorophenyl)-3-(4-methoxyphenyl)prop-2-en-1-one] | 255 ± 27.1 mg/dL | –
O=C(/C=C/c1ccccc1)c1ccc(Cl)cc1 [Compound 46, (E)-1-(4-chlorophenyl)-3-phenylprop-2-en-1-one] | 295 ± 8.8 mg/dL | –
COc1ccc(/C=C/C(=O)c2ccc(Cl)cc2)cc1 [Compound 47, (E)-1-(4-chlorophenyl)-3-(4-methoxyphenyl)prop-2-en-1-one] | 293 ± 7.8 mg/dL | –
O=C(/C=C/c1ccccc1)c1ccccc1Br [Compound 48, (E)-1-(2-bromophenyl)-3-phenylprop-2-en-1-one] | 249 ± 20.8 mg/dL | –
O=C(/C=C/c1ccccc1)c1cccc(Br)c1 [Compound 49, (E)-1-(3-bromophenyl)-3-phenylprop-2-en-1-one] | 299 ± 7.3 mg/dL | –
O=C(/C=C/c1ccccc1)c1ccc(Br)cc1 [Compound 50, (E)-1-(4-bromophenyl)-3-phenylprop-2-en-1-one] | 295 ± 5.8 mg/dL | –
O=C(/C=C/c1ccc(OCc2ccccc2)cc1)c1ccccc1I [Compound 53, (E)-3-(4-(benzyloxy)phenyl)-1-(2-iodophenyl)prop-2-en-1-one] | 249 ± 3.6 mg/dL | –
O=C(/C=C/c1cccc(OCc2ccccc2)c1)c1ccccc1I [Compound 54, (E)-3-(3-(benzyloxy)phenyl)-1-(2-iodophenyl)prop-2-en-1-one] | 238 mg/dL and 238 ± 1.1 mg/dL | –
O=C(/C=C/c1ccccc1)c1cccc(I)c1 [Compound 55, (E)-1-(3-iodophenyl)-3-phenylprop-2-en-1-one] | 294 ± 7.3 mg/dL | –
COc1ccc(/C=C/C(=O)c2cccc(I)c2)cc1 [Compound 56, (E)-1-(3-iodophenyl)-3-(4-methoxyphenyl)prop-2-en-1-one] | 233 mg/dL and 233 ± 3.5 mg/dL | –
COc1cccc(/C=C/C(=O)c2cccc(I)c2)c1 [Compound 57, (E)-1-(3-iodophenyl)-3-(3-methoxyphenyl)prop-2-en-1-one] | 246 ± 11.3 mg/dL | –
O=C(/C=C/c1ccccc1)c1ccc(I)cc1 [Compound 58, (E)-1-(4-iodophenyl)-3-phenylprop-2-en-1-one] | 292 ± 5.3 mg/dL | –
COc1ccc(/C=C/C(=O)c2ccc(I)cc2)cc1 [Compound 59, (E)-1-(4-iodophenyl)-3-(4-methoxyphenyl)prop-2-en-1-one] | 299 ± 3.8 mg/dL | –
COc1cccc(/C=C/C(=O)c2ccc(I)cc2)c1 [Compound 60, (E)-1-(4-iodophenyl)-3-(3-methoxyphenyl)prop-2-en-1-one] | 274 ± 22.5 mg/dL | –
CCc1ccc(CCOc2ccc(CC3SC(=O)NC3=O)cc2)nc1 (stereo not shown) [Pioglitazone, pioglitazone, reference compound] | 230 ± 13.5 mg/dL | remaining glucose concentration in culture medium after 24 hours (3T3-L1 adipocytes [1]; listed as pioglitazone): 230 mg/dL
CN(CCOc1ccc(CC2SC(=O)NC2=O)cc1)c1ccccn1 (stereo not shown) [Rosiglitazone, rosiglitazone, reference compound] | 263 ± 23.9 mg/dL | remaining glucose concentration in culture medium after 24 hours (3T3-L1 adipocytes [1]; listed as rosiglitazone): 263 mg/dL
